Source: patent publication US9656959B2, “Substituted pyridines as sodium channel blockers” (Purdue Pharma L.P., priority 2010, dated 2017)
Where two headings read alike, the source gives them in different places.

Columns and labels:
human Nav1.7 = human Nav1.7 (Homo sapiens (Human), UniProt Q15858); test: FLIPR or FLIPR TETRA sodium dye assay with KCl and test article pre-incubation; format: cell-based
hNav1.7 = hNav1.7 (Homo sapiens (Human), UniProt Q15858); test: Electrophysiology (EP) assay, whole-cell patch clamp; format: cell-based; conditions: hNav1.7 HEK-293 cells; for Ki: affinity for the inactivated state of the channel, read-out: Nav1.7 Activity (μM) EP assay Ki; for Kd: resting block dissociation constant, read-out: Nav1.7 Activity (μM) EP assay Kr
Method: The hNav1.7 expressing HEK-293 cells were plated on 35 mm culture dishes pre-coated with poly-D-lysine in standard DMEM culture media (Mediatech, Inc., Herndon, Va.) and incubated in a 5% CO2 incubator at 37° C. Cultured cells were used approximately 12-48 hours after plating.
On the day of experimentation, the 35 mm dish was placed on the stage of an inverted microscope equipped with a perfusion system that continuously perfuses the culture dish with fresh recording media. A gravity driven superfusion system was used to apply test solutions directly to the cell under evaluation. This system consists of an array of glass pipette connected to a motorized horizontal translator. The outlet of the shooter was positioned approximately 100 μm from the cell of interest.
Whole cell currents were recorded using the whole-cell patch clamp configuration using an Axopatch 200B amplifier (Axon Instruments, Foster City Calif.), 1322A A/D converter (Axon Instruments) and pClamp software (v. 8; Axon Instruments) and stored on a personal computer. Gigaseals were formed and the whole-cell configuration was established in voltage clamp mode, and membrane currents generated by hNav1.7 were recorded in gap-free mode. Borosilicate glass pipettes have resistance values between 1.5 and 2.0 MΩ when filled with pipette solution and series resistance (<5 MΩ) was compensated 75-80%. Signals were sampled at 50 kHz and low pass filtered at 3 kHz.
After establishing the whole-cell configuration in voltage clamp mode, voltage protocols were run to establish the 1) test potential, 2) holding potential, and 3) the conditioning potential for each cell.
After establishing the whole-cell configuration in voltage clamp mode, a standard I-V protocol was run to determine the potential at which the maximal current (Imax) is elicited. This potential was the test potential (Vt). […] This protocol also permitted determination of the holding potential at which all channels are in the resting state.
For compounds causing significant retardation of recovery from inactivation, an estimate of the affinity for the inactivated state of the channel (Ki) was generated using the following protocol. From the negative, no residual inactivation, holding potential, the cell was depolarized to the conditioning voltage for 2-5 seconds, returned to the negative holding potential for 10-20 ms to relieve fast inactivation and then depolarized to the test potential for ˜15 ms. This voltage protocol was repeated every 10-15 seconds, first to establish a baseline in the absence of the test compound, then in the presence of the test compound.
After a stable baseline was established, the test compound was applied and block of the current elicited by the test pulse assessed. In some cases, multiple cumulative concentrations were applied to identify a concentration that blocked between 40-60% of this current. Washout of the compound was attempted by superfusing with control solution once steady-state block was observed. An estimate of the K, was calculated as follows: Ki=[drug]*{FR/(1−FR)}, Eq. 1
where [drug] is the concentration of a drug, and FR=I(after drug)/I(control), Eq. 2 where I is the peak current amplitude. If multiple concentrations were used, Ki was determined from the fit of a logistic equation to FRs plotted against corresponding drug concentrations.
In the alternative, the voltage clamp protocol to examine hNav1.7 currents was as follows. First, the standard current-voltage relationship was tested by pulsing the cell from the holding voltage (Vh) of −120 mV by a series of 5 msec long square-shaped test pulses incrementing in +10 mV steps over the membrane voltage range of −90 mV to +60 mV at the pace of stimulation of 0.5 Hz. This procedure determines the voltage that elicits the maximal current (Vmax). […]

[1] = recombinant Nav1.7/HEK293 cells, CoroNa Green sodium dye, veratridine + scorpion venom agonists, ± SEM
[2] = read-out: Nav1.7 Activity (μM) FLIPR assay IC50 (μM) ± SEM

Sequence of human Nav1.7 (Q15858 with tags, fused parts or gaps limits assumed): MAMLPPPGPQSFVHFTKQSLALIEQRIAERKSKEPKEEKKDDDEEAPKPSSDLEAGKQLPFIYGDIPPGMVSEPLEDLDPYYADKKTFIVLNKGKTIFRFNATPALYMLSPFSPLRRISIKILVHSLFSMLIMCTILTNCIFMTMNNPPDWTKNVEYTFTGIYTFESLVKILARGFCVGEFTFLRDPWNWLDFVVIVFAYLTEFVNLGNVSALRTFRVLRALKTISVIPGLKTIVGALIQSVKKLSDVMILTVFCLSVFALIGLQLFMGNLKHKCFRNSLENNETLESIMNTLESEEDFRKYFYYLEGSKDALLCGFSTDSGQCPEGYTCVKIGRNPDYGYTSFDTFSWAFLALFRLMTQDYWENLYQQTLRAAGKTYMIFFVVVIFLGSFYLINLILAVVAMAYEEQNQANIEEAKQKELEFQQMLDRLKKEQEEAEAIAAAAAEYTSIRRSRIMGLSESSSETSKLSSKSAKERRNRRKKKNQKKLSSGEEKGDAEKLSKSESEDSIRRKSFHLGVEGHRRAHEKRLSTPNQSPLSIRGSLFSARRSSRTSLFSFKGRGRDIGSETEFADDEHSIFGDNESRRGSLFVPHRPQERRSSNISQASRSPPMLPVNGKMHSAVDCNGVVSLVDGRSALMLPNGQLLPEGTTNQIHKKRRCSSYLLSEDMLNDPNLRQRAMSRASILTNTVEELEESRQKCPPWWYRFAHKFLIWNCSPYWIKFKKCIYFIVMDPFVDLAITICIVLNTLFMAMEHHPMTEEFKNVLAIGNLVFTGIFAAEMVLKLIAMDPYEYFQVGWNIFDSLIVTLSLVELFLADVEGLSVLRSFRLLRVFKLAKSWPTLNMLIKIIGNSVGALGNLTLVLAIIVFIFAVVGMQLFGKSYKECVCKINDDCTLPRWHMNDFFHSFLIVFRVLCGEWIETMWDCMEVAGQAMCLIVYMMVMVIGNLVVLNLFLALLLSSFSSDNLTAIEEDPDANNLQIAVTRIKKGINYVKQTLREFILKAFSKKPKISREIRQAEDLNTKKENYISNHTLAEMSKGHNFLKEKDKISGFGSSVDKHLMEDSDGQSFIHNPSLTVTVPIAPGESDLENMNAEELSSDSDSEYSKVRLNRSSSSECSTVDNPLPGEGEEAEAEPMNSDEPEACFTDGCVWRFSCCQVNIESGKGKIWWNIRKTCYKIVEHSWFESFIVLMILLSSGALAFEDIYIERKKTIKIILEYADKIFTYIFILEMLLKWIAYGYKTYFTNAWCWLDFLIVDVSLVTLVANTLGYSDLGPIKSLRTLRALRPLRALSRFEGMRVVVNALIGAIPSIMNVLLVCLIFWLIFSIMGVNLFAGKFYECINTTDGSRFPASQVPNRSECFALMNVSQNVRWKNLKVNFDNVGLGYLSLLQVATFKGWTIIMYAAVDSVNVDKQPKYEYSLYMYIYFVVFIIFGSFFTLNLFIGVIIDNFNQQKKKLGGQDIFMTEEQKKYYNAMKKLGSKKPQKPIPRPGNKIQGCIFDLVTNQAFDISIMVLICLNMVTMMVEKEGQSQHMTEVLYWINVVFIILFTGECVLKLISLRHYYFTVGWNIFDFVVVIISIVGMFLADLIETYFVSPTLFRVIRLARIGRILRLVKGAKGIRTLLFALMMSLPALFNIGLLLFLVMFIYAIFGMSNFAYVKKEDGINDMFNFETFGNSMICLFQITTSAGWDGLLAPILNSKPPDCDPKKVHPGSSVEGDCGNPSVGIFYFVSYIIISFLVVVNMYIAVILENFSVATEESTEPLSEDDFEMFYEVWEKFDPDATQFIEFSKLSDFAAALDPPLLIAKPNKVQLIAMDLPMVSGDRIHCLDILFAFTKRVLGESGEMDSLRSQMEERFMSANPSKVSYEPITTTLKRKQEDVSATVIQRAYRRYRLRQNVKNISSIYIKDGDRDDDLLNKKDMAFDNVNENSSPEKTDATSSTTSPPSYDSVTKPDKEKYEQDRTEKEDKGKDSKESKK
Sequence of hNav1.7 (Q15858 other isoform, or with tags, fused parts or gaps): as the sequence (Q15858 with tags, fused parts or gaps limits assumed) above

Structure (SMILES) | IC50 (human Nav1.7; [1]) [µM] | Ki (hNav1.7) [µM] | IC50 (human Nav1.7; [2]) [µM] | Kd (hNav1.7) [µM]
CC(=O)N[C@@H](Cc1ccccc1)C(=O)Nc1cccc(-c2ccc(Oc3ccc(F)cc3)cc2)n1 [Compound 4, (S)-2-acetamido-N-(6-(4-(4-fluorophenoxy)phenyl)pyridin-2-yl)-3-phenylpropanamide] | 0.064 ± 0.02 | 0.13 ± 0.03 |  | 
O=C(N[C@@H](CO)C(=O)Nc1cccc(-c2ccc(Oc3ccc(F)cc3)cc2)n1)c1cccnc1 [Compound 56, N-((S)-1-{6-[4-(4-Fluoro-phenoxy)-phenyl]-pyridin-2-ylcarbamoyl}-2-hydroxy-ethyl)-nicotinamide] |  | 0.195 ± 0.07 | 0.14 ± 0.05 | 32.2 ± 8.38
N[C@@H](CO)C(=O)Nc1cccc(-c2ccc(Oc3ccc(F)cc3)cc2)n1 [Compound 70, (S)-2-Amino-N-{6-[4-(4-fluoro-phenoxy)-phenyl]-pridin-2-yl}-3-hydroxy-propionamide] | 0.27 ± 0.032 | 0.046 |  | 0.803 ± 0.2
CC(=O)N[C@@H](CC(C)C)C(=O)Nc1cccc(-c2ccc(Oc3ccc(F)cc3)cc2)n1 [Compound 3, (S)-2-acetamido-N-(6-(4-(4-fluorophenoxy)phenyl)pyridin-2-yl)-4-methylpentanamide] | 0.042 ± 0.02 | 0.194 ± 0.07 |  | 
O=C(Nc1cccc(-c2ccc(Oc3ccc(F)cc3)cc2)n1)C(O)CO (stereo not drawn) [Compound 72, N-(6-(4-(4-fluorophenoxy)phenyl)pyridin-2-yl)-2,3-dihydroxypropanamide] | 0.074 | 0.143 ± 0.03 |  | 8.91 ± 1.21
O=C1NCCN1CCNc1cc([C@H](O)CO)cc(-c2ccc(Oc3ccc(F)cc3)cc2)n1 [Compound 66, (S)-1-(2-((4-(1,2-dihydroxyethyl)-6-(4-(4-fluorophenoxy)phenyl)pyridin-2-yl)amino)ethyl)imidazolidin-2-one] | 5 ± 0.88 | 1.37 ± 0.17 |  | 
CC(C)C[C@H](NC(=O)c1ccccn1)C(=O)Nc1cccc(-c2ccc(Oc3ccc(F)cc3)cc2)n1 [Compound 7, (S)-N-(1-((6-(4-(4-fluorophenoxy)phenyl)pyridin-2-yl)amino)-4-methyl-1-oxopentan-2-yl)picolinamide] |  | 0.059 ± 0.01 | 0.067 ± 0.007 | 18 ± 1
CC(C)C[C@H](NC(N)=O)C(=O)Nc1cccc(-c2ccc(Oc3ccc(F)cc3)cc2)n1 [Compound 12, (S)-N-(6-(4-(4-fluorophenoxy)phenyl)pyridin-2-yl)-4-methyl-2-ureidopentanamide] | 0.096 ± 0.004 | 0.257 ± 0.06 |  | 5.06
O=C(CO)N[C@@H](CO)C(=O)Nc1cccc(-c2ccc(Oc3ccc(F)cc3)cc2)n1 [Compound 60, (S)-N-{6-[4-(4-Fluoro-phenoxy)-phenyl]-pyridin-2-yl}-3-hydroxy-2-(2-hydroxy-acetylamino)-propionamide] | 0.46 ± 0.08 | 0.113 ± 0.05 |  | 4.94 ± 0.81
CS(=O)(=O)N[C@@H](Cc1c[nH]cn1)C(=O)Nc1cccc(-c2ccc(Oc3ccc(F)cc3)cc2)n1 [Compound 38, (S)-N-(6-(4-(4-fluorophenoxy)phenyl)pyridin-2-yl)-3-(1H-imidazol-4-yl)-2-(methylsulfonamido)propanamide] |  | 0.019 ± 0.01 | 0.14 ± 0.03 | 1.2 ± 0.31
CC(=O)N[C@@H](Cc1c[nH]cn1)C(=O)Nc1cccc(-c2ccc(Oc3ccc(F)cc3)cc2)n1 [Compound 32, (S)-2-acetamido-N-(6-(4-(4-fluorophenoxy)phenyl)pyridin-2-yl)-3-(1H-imidazol-4-yl)propanamide] |  | 0.025 | 0.086 ± 0.02 | 0.58 ± 0.1
CC(C)C[C@H](NC(=O)NC(C)(C)C)C(=O)Nc1cccc(-c2ccc(Oc3ccc(F)cc3)cc2)n1 [Compound 13, (S)-2-(3-(tert-butyl)ureido)-N-(6-(4-(4-fluorophenoxy)phenyl)pyridin-2-yl)-4-methylpentanamide] | 0.075 ± 0.017 | 0.075 ± 0.02 |  | 10.2 ± 0.2
O=C(N[C@@H](Cc1c[nH]cn1)C(=O)Nc1cccc(-c2ccc(Oc3ccc(F)cc3)cc2)n1)C1CC1 [Compound 33, (S)-N-(1-((6-(4-(4-fluorophenoxy)phenyl)pyridin-2-yl)amino)-3-(1H-imidazol-4-yl)-1-oxopropan-2-yl)cyclopropanecarboxamide] |  | 0.206 ± 0.04 | 0.11 ± 0.02 | 5.31 ± 0.56
CCC(=O)N[C@@H](Cc1cn(C)cn1)C(=O)Nc1cccc(-c2ccc(Oc3ccc(F)cc3)cc2)n1 [Compound 81, (S)-N-(6-(4-(4-fluorophenoxy)phenyl)pyridin-2-yl)-3-(1-methyl-1H-imidazol-4-yl)-2-propionamidopropanamide] |  |  | 0.064 ± 0.01 | 
CC(=O)N[C@@H](Cc1cn(C)cn1)C(=O)Nc1cc(-c2ccc(Oc3ccc(F)cc3)cc2)ccn1 [Compound 84, (S)-2-acetamido-N-(4-(4-(4-fluorophenoxy)phenyl)pyridin-2-yl)-3-(1-methyl-1H-imidazol-4-yl)propanamide] |  |  | 0.29 ± 0.025 | 
COCCOCC(=O)N[C@@H](CC(C)C)C(=O)Nc1cccc(-c2ccc(Oc3ccc(F)cc3)cc2)n1 [Compound 9, (S)-N-(6-(4-(4-fluorophenoxy)phenyl)pyridin-2-yl)-2-(2-(2-methoxyethoxy)acetamido)-4-methylpentanamide] |  |  | 0.091 ± 0.02 | 
